Columns and labels:
hNET = target: T1, hNET (Homo sapiens, UniProt P23975); assay: Transporter release (superfusion) assay in HEK293 cells expressing hNET; type: cell-based; conditions: test drug 10 μM, monensin 10 μM; post hoc Bonferroni
T1 construct: expressed in transfected cells
Method: The generation of HEK293 cells stably expressing the human isoforms of DAT (hDAT) and NET (hNET) was carried out as described previously (Scholze et al., 2002). For SERT, the human isoform (hSERT) was cloned in frame with yellow fluorescent protein (Schmid et al., 2001). The generation of a stable cell line was performed as described by Hilber and colleagues (Hilber et al., 2005). HEK293 cells were maintained in humidified atmosphere (5% CO2, 37°C) in DMEM, supplemented with 10% heat‐inactivated FBS and penicillin (100 u 100 mL^−1) and streptomycin (100 μg 100 mL^−1). Selection pressure was maintained by adding geneticin (50 μg·mL^−1) to the cell culture media.
Superfusion experiments were performed as described previously (Scholze et al., 2002). Briefly, HEK293 cells expressing the desired transporter were seeded at a density of 40 000 cells per well onto poly‐D‐lysine‐coated 5 mm glass cover slips in 96‐well plates 24 h prior to the experiment. Cells were preloaded with [^3H]‐MPP^+ (0.1 μM, hDAT and hNET) or [^3H]‐5‐HT (0.4 μM, hSERT) for 20 min at 37°C in a final volume of 100 μL per well. Subsequently, glass coverslips were transferred into small superfusion chambers (volume of 200 μL) and superfused with KHB at 25°C with a superfusion rate of 0.7 mL·min^−1 for 40 min to establish a stable basal efflux. After washout, the collection of 2‐min fractions was initiated. After the first three basal fractions, monensin (10 μM) or solvent was added for four fractions. […] Finally, the cells were lysed in 1% SDS to determine the total radioactivity. Radioactivity per fraction was assessed by a liquid scintillation counter and expressed as fractional release, that is, the percentage of released ^3H in relation to total ^3H present at the beginning of the fraction (Sitte et al., 2000). For analysis, release was expressed as AUC.
Calculations were performed using Microsoft Excel® 2010 (Microsoft Corporation, Redmond, WA, USA) and GRAPHPAD PRISM 5.0. […] IC50 values for uptake inhibition and EC50 values for release were determined by nonlinear regression fits. Release data expressed as AUC were analysed by one‐way ANOVA followed by Bonferroni's multiple comparison test. Microdialysis and locomotor data were analysed by two‐way ANOVA (drug treatment × time) followed by Bonferroni's test. The effect of monensin treatment on basal efflux of tritiated substrate was analysed with the Mann–Whitney test. […]
Data from uptake inhibition assays cannot distinguish whether test drugs act as non‐transported inhibitors or transportable substrates, which evoke release (Scholze et al., 2000; Sitte et al., 2000; Baumann et al., 2013). […] As described previously, efflux of preloaded [^3H]‐MPP^+ or [^3H]‐5‐HT was monitored in the presence or absence of monensin (10 μM) (Scholze et al., 2000). […]

[1] = system: extracellular 5-HT in rat nucleus accumbens; assay: Microdialysis in rat nucleus accumbens, dialysate 5-HT; type: in vivo; conditions: for increase of dialysate 5-HT above baseline: rat nucleus accumbens
Method: In vivo microdialysis procedures were carried out as previously described with minor modifications (Baumann et al., 2012). Briefly, male rats anaesthetized with sodium pentobarbital (60 mg·kg^−1, i.p.) received surgically implanted jugular catheters, and intracerebral guide cannulae aimed at the nucleus accumbens (AP +1.6 mm, ML −1.7 mm relative to bregma; −6.2 mm relative to dura) (Paxinos and Watson, 2007). After a 7–10 day recovery, each rat was placed into a chamber equipped with photobeams for the detection of motor parameters (TruScan, Harvard Apparatus, Holliston, MA, USA) and allowed to acclimatize overnight. Food and water were available ad libitum during the acclimatization period. On the following morning, catheters were attached to PE 50 extension tubes, and 0.5 × 2 mm microdialysis probes (CMA/12, Harvard Apparatus, Holliston, MA, USA) were inserted into the guide cannulae. Ringers' solution (150 mM NaCl, 2.8 mM KCl and 2.0 mM CaCl2) was perfused through the probes at 0.6 μL·min^−1 for 3 h. To commence experiments, dialysate samples ([…]) were collected at 20 min intervals, and drug or saline treatments were given after three baseline samples were obtained. Rats received two sequential i.v. injections of mephedrone or its metabolites, with 1 mg·kg^−1 administered at time zero, followed by 3 mg·kg^−1 60 min later. Saline was administered using the same schedule in a separate group of rats. Dialysate concentrations of dopamine and 5‐HT were quantified using HPLC coupled to electrochemical detection (Baumann et al., 2012). Chromatographic data were exported to an Empower software system (Waters, Inc., Milford, MA, USA) for peak identification, integration and analysis.
Correct probe placements were assessed after the microdialysis experiments. Rats were killed by CO2 narcosis then decapitated. Brains were quickly removed and immersion fixed in 10% paraformaldehyde for 1 week. Subsequently, brains were sectioned on a cryostat, and the location of each probe tip was verified by inspection of photographic images of the brain taken with a digital camera using the macro lens setting.
Calculations were performed using Microsoft Excel® 2010 (Microsoft Corporation, Redmond, WA, USA) and GRAPHPAD PRISM 5.0. (GraphPad Software Inc., La Jolla, CA, USA). IC50 values for uptake inhibition and EC50 values for release were determined by nonlinear regression fits. Release data expressed as AUC were analysed by one‐way ANOVA followed by Bonferroni's multiple comparison test. Microdialysis and locomotor data were analysed by two‐way ANOVA (drug treatment × time) followed by Bonferroni's test. The effect of monensin treatment on basal efflux of tritiated substrate was analysed with the Mann–Whitney test. P values less than 0.05 (i.e. P < 0.05) were considered significant. The data and statistical analysis comply with the recommendations on experimental design and analysis in pharmacology (Curtis et al., 2015).

[2] = 3 mg·kg−1 i.v. (60 min after 1 mg·kg−1)

T1 sequence (P23975 whole entry, the tested form may be a part): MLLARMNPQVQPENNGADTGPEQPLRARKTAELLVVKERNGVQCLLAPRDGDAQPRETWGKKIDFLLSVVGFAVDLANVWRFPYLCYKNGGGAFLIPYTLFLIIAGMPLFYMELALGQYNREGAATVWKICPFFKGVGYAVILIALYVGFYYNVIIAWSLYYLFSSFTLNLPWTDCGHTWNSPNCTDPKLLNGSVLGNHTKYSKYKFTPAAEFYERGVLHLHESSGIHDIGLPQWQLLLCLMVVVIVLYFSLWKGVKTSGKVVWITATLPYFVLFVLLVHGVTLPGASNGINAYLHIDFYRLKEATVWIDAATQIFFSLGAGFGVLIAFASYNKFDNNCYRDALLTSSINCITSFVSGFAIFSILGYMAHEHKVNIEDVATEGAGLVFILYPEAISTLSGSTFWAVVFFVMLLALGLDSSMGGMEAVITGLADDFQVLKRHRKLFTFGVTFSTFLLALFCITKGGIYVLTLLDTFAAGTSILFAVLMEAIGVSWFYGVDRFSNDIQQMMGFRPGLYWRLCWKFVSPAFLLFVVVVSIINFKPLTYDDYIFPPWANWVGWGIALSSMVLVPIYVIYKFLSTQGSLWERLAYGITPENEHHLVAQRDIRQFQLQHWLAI

CNC(C)C(=O)c1ccc(C)cc1.Cl (centres unmarked) [Mephedrone, 2‐Methylamino‐1‐(p‐tolyl)propan‐1‐one hydrochloride]
enhancement by monensin of drug-evoked [3H]-MPP+ release at hNET (AUC) (hNET): significant | increase of dialysate 5-HT above baseline ([1]; 1 mg·kg−1 i.v.): 15 fold | increase of dialysate 5-HT above baseline [1, 2]: 25 fold

Cc1ccc(C(=O)C(C)N)cc1.Cl (centres unmarked) [Nor‐mephedrone, 2‐amino‐1‐(p‐tolyl)propan‐1‐one hydrochloride]
enhancement by monensin of drug-evoked [3H]-MPP+ release at hNET (AUC) (hNET): significant | increase of dialysate 5-HT above baseline ([1]; 1 mg·kg−1 i.v.): 15 fold | increase of dialysate 5-HT above baseline [1, 2]: 25 fold

CNC(C)C(=O)c1ccc(CO)cc1.Cl (centres unmarked) [4‐OH‐mephedrone, 1‐(4‐(hydroxymethyl)phenyl)‐2‐(methylamino)propan‐1‐one hydrochloride]
enhancement by monensin of drug-evoked [3H]-MPP+ release at hNET (AUC) (hNET): significant | effect on extracellular neurotransmitters in the brain (5-HT) ([1]; systemic administration, 1 and 3 mg·kg−1 i.v., rat): no significant effect

Reference: article PMC4978154, “Phase I metabolites of mephedrone display biological activity as substrates at monoamine transporters” (British Journal of Pharmacology, 2016)
